Literature values, collected in patent US20250375478A1, “THERAPEUTIC COMPOSITION, ASSEMBLY KIT AND METHOD FOR THE TREATMENT OF DRY EYE DISEASE AND PROMOTION OF OCULAR HEALTH” (PReye, LLC, priority 2025, published 2025).

Conditions: ferulic acid combined in solution with Vitamin C

**Q.** With COc1cc(/C=C/C(=O)O)ccc1O [Ferulic acid] as the compound, how does the “stabilization of Vitamin C” value read?
**A.** The value was “up to 90%”.
